The test system of test [1] is Rattus norvegicus. Kind of test: Antidiabetic activity in Rattus norvegicus albino (rat) assessed as inhibition in rise of blood glucose level at 20 mg/kg, po administered 30 min prior to glucose challenge measured post 60 min of challenge by oral glucose tolerance test relative to control. The test is classed as functional.
Test [2] concerns Rattus norvegicus. Put plainly: Antidiabetic activity in overnight fastedRattus norvegicus albino (rat) assessed as reduction in blood glucose level at 20 mg/kg, po measured after 60 min by oral glucose tolerance test relative to control (reference value: 78.0 +/- 1.167 mg/dl). The test is classed as functional.

The source made the active and inactive calls. The rule behind the calls is not given here.

The inhibition in vivo is the share of the control response that was lost under treatment. For `Cc1ccc(S(=O)(=O)NC(=O)NN2CC3CCCC3C2)cc1` (stereo not drawn) [GLICLAZIDE], the inhibition in vivo at 20 mg/kg in the test on Rattus norvegicus [1] was determined as 61.4%. In addition, in the test with Rattus norvegicus [2], the Activity amounted to 58.2 mg/dL.
As to `Cc1ccc(C2=NN(c3ccc(S(=O)(=O)NC(=O)NCc4ccccc4)cc3)C(=O)CC2)cc1`, the inhibition result in the test with Rattus norvegicus [1] was “inactive”.
`Cc1ccc(C2=NN(c3ccc(S(=O)(=O)NC(=O)NCc4ccccc4)cc3)C(=O)CC2)c(C)c1`: the inhibition in vivo at 20 mg/kg with Rattus norvegicus [1] is 6.5%.
With `O=C(NCc1ccccc1)NS(=O)(=O)c1ccc(N2N=C(c3ccc(Oc4ccccc4)cc3)CCC2=O)cc1`, the inhibition entry in the test on Rattus norvegicus [1] is “inactive”.
`COc1ccc(C2=NN(c3ccc(S(=O)(=O)NC(=O)NCc4ccccc4)cc3)C(=O)CC2)cc1`: the inhibition in vivo at 20 mg/kg in the test with Rattus norvegicus [1] was determined as 41.4%.
Regarding `CCc1ccc(C2=NN(c3ccc(S(=O)(=O)NC(=O)NCc4ccccc4)cc3)C(=O)CC2)cc1`, in the test on Rattus norvegicus [1], the inhibition in vivo at 20 mg/kg came out at 86.9%. In addition, the Activity in the test on Rattus norvegicus [2] came to 62 mg/dL.
